Key:
IKKβ = test: TNFα-induced IKKβ phosphorylation, IκBα phosphorylation and degradation; format: cell-based
Method: All studies used two TNBC cell lines, MDA-MB-231 and MDA-MB-468. […] For IκBα degradation, cells were treated as described above and stimulated with 20 ng/mL TNFα for 10 min.
(§1) Western blotting was performed. 20-60 μg of total lysates per lane were loaded on 7%, 10%, or 12% SDS-PAGE and transferred onto nitrocellulose or polyvinylidene difluoride membranes (Bio-Rad). The membranes were probed with primary antibodies against caspase-3, multi-drug resistance protein-1 (MRP1), poly [ADP ribose] polymerase-1 (PARP-1), ubiquitin, RelA; cyclin D1, p21, caspase-9, MRP4, IKKβ, pIKKβ, IκBα, or pIκBα (Cell Signaling); caspase-8 (R&D Systems). Samples were normalized to β-actin (Sigma-Aldrich) or GAPDH (Trevigen).

[1] = system: MDA-MB-231 and MDA-MB-468 cells; test: Western blot of cell cycle and apoptosis proteins; format: cell-based; settings: 5 μM, 24 hr
Method: as §1

MCF-10A cells [2] = test: Western blot of cell cycle and apoptosis proteins; format: cell-based; settings: 5 μM, 24 hr
Method: as §1

[3] = system: RAD51 foci in MDA-MB-231 cells; test: RAD51 foci and γH2AX immunofluorescence after 5 Gy IR; format: cell-based
Method: To analyze RAD51 foci formation, 10,000 cells were plated to CultureWell 16-well chambered cover glass (MIDSCI) coated with poly-L-lysine (Sigma) and incubated overnight in 5% FBS media. […] Cells were fixed with 10% formalin for 20 min at 4° C. and immunostained with RAD51 (Santa Cruz) or γH2AX (EMD Biosciences) antibodies. Z-stack images were acquired using a Nikon AIR confocal microscope with 60× oil objective and acquisition performed using NIS elements software. Quantification of z-stacks and foci were completed using ImageJ software.
Data represent the mean±SEM from 3 independent experiments unless otherwise noted. A p value<0.05 was considered statistically significant. Non-linear curves were generated in GraphPad Prism 7.0 (GraphPad Software, La Jolla, CA, USA) for statistical analysis. EC50 values and standard error were calculated from three independent experiments utilizing a non-linear dose response variable slope model. Significance was tested by one-way ANOVA for multiple groups with Tukey posttest or by t-test when groups were less than three. RAD51 foci number was analyzed with ImageJ. Nuclear boundaries were individually identified in more than 50 cells per treatment group in three independent experiments.

[4] = system: MDA-MB-231 orthotopic tumor; test: Orthotopic MDA-MB-231 tumor model, 15 mg/kg gavage; format: in vivo, mice
Method: Animals used for this study were approved by and conducted according to the guidelines of the University of Pittsburgh IACUC. MDA-MB-231 cells (0.5×106) were injected into the mammary fat pad (left 4th gland) of 6-wk-old female nude mice in a volume of 20 μL sterile saline. When tumors reached an average volume of 100 mm^3, mice were treated with OA+vehicle (n=8), OA-NO2+vehicle (n=7), OA+talazoparib (0.3 mg/kg) (n=10) or OA-NO2 (15 mg/kg)+talazoparib (n=11). Tumor volume was measured by caliper over time in P-values: *<0.01, ***<0.001, ****<0.0001. The surgical procedure has been previously described.
Whether NO2-OA could also enhance TNBC DNA damage in vivo was also assessed. […] (FIG. 1B). […] This response became statistically significant after Grubbs outlier detection and elimination of OA treated mouse #2. The orthotopic tumor in OA mouse #2 was the largest tumor in the study, with necrosis potentially causing enhanced γH2AX levels.

[5] = system: MDA-MB-231 and MDA-MB-468 cells; test: FACS cell cycle analysis; format: cell-based; settings: 5 μM, 24 hr
Method: (§2) Adherent and nonadherent cells were collected, centrifuged at 2000×rpm for 10 min, washed with ice-cold phosphate-buffered saline, fixed with cold 70% ethanol at 4° C. for 30 mins, and stained with 50 μg/mL propidium iodide (Sigma-Aldrich). FACS analysis was performed at the University of Pittsburgh Department of Immunology Unified Flow Core Facility. Three individual experiments were done, and statistical comparisons among phases (G0/G1, S, and G2/M) were determined by one-way analysis of variance followed by Tukey post-test.

MCF-10A cells [6] = test: FACS cell cycle analysis; format: cell-based; settings: 5 μM, 24 hr
Method: as §2

[7] = intravenous and oral formulations; cited from earlier work
[8] = system: MDA-MB-231 and MDA-MB-468 cells; test: MTT viability / cytotoxicity; format: cell-based
MDA-MB-468 cells = test: Matrigel cell invasion assay; format: cell-based; settings: NO2-OA/NO2-SA 5 μM, JSH-23 10 μM, TNFα 20 ng/mL, 24 hr
Method: Cells were then suspended in migration media and placed in the top well of invasion chambers (EMD Millipore). Chemoattractant (5% FBS) was placed in the lower chamber for 24 hr at 37° C. to attract invasive cells. Cells were then harvested and invasion rates were determined according to manufacturer's protocol. Three individual experiments were done, and statistical comparison among treatments was determined by one-way analysis of variance followed by Tukey post-test.

breast cancer cell = test: Clonogenic assay after 2 Gy IR; format: cell-based; settings: increasing concentrations
TNBC cells = test: Cellular H2O2 production; format: cell-based; settings: short term and extended (6 hr) treatment
RAD51 = biological target: T1, RAD51 (Homo sapiens, UniProt Q06609); test: RAD51 ssDNA binding, fluorescence polarization; format: biochemical; settings: 5 or 10 μM, ATP and Alexa Fluor 488 DNA
T1 construct: purchased Abcam
T1 sequence (Q06609 whole entry): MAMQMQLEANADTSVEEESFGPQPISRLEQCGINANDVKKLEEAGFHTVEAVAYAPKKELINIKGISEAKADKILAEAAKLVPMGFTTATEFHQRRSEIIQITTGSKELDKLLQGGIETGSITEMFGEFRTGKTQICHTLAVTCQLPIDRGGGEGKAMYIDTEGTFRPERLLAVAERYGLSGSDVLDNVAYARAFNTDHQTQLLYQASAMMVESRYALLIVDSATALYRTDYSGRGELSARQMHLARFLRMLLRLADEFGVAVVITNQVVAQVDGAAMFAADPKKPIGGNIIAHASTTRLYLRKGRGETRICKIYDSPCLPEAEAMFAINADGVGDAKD
Method: Reactions were performed in black 96-well plates (Greiner) in 50 μL reaction volumes in 20 mM HEPES pH 7.5, 10 mM MgCl2, 0.25 μM BSA, 2% glycerol, 30 mM NaCl and 4% DMSO. […] 2 mM ATP and 100 nM 5′-Alexa Fluor 488 ssDNA poly-dT (Integrated DNA technologies) were added to the reaction and incubated for 90 min at 37° C. DNA binding was measured using fluorescence polarization (FP) on a Tecan Spark 20M (ex/em 480 nm/535 nm). Compound fluorescence quenching was detected as above in the absence of RAD51 protein.

**Q.** For `CCCCCCCCC(=CCCCCCCCC(=O)O)[N+](=O)[O-]` [NO2-OA, 10-nitro-octadec-9-enoic acid], which “TNFα-induced IKKβ phosphorylation” value (IKKβ; NO2-OA 5 μM or BAY11-7082 10 μM 2 hr, TNFα 20 ng/mL 5 min) is on record?
**A.** diminished

**Q.** And the “degradation of IκBα following TNFα stimulation” value (IKKβ; TNFα 20 ng/mL, 10 min)?
**A.** inhibited the degradation of IκBβ

**Q.** What about the IκBα phosphorylation (IKKβ; with proteasome inhibitor MG-132 10 μM) of the same molecule?
**A.** decreased IκBβ phosphorylation

**Q.** And the PARP-1 cleavage [1]?
**A.** promoted caspase-3-mediated cleavage of PARP-1

**Q.** What about the “caspase-8 and caspase-9 cleavage” value [1] of the same molecule?
**A.** increased cleavage of caspase-8 and caspase-9

**Q.** What about the “p21 and cyclin D1 protein expression” value [1] of the same molecule?
**A.** an increase in p21 and a decrease in cyclin D1 protein expression

**Q.** What about the PARP-1 cleavage (MCF-10A cells [2]) of the same molecule?
**A.** but not in MCF-10A cells

**Q.** What about the RAD51 foci formation ([3]; 5 μM, 6 h) of the same molecule?
**A.** inhibited RAD51 foci formation

**Q.** What about the “nuclear γH2AX localization” value ([3]; versus vehicle) of the same molecule?
**A.** significantly increased nuclear γH2AX localization

**Q.** What about the “tumor γH2AX level by immunoblot” value ([4]; 15 mg/kg by gavage for 4 wk, versus OA) of the same molecule?
**A.** higher levels of γH2AX

**Q.** What about the tumor growth rate ([4]; 15 mg/kg by gavage for 4 wk, versus OA treated controls) of the same molecule?
**A.** significantly decreased tumor growth rates

**Q.** And the “tumor reduction / tumor volume in combination with talazoparib” value ([4]; NO2-OA 15 mg/kg + talazoparib 0.3 mg/kg versus either alone)?
**A.** significant greater tumor reduction compared to talazoparib or NO2-OA alone

**Q.** What about the “cell cycle phase distribution” value [5] of the same molecule?
**A.** significantly increased the percentage of cells at G2/M phase

**Q.** And the “cell cycle phase populations (G0/G1, S, G2/M)” value (MCF-10A cells [6])?
**A.** not affected

**Q.** What about the clinical safety [7] of the same molecule?
**A.** safe

**Q.** And the “cell viability (MTT)” value [8]?
**A.** significantly reduced the viability

**Q.** What about the cytotoxicity ([8]; 5 μM, up to 24 hr, any cell line) of the same molecule?
**A.** No cytotoxicity was detectable

**Q.** And the TNFα-induced invasion (MDA-MB-468 cells)?
**A.** significantly inhibited

**Q.** And the “cell death in clonogenic assay” value (breast cancer cell)?
**A.** enhanced breast cancer cell death

**Q.** And the “cellular rates of H2O2 production” value (TNBC cells)?
**A.** did not significantly impact cellular rates of H2O2 production

**Q.** What about the “relative fluorescence polarization of RAD51 with ssDNA” value (RAD51) of the same molecule?
**A.** decreased the relative polarization of RAD51
